Assay results taken from the supplement of paper PMC13380429.
Counter-ions that a name gives are not always drawn.

Columns and labels:
Conditions in all cases: 72 h
U2OS [1] = assay: drug sensitivity score (DSS) for viability; higher = more toxic; extreme values may be limits of the assay
Vero E6 [2] = assay: as above
Caco-2 [3] = assay: as above
HepG2 [4] = assay: as above
U2OS [5] = assay: relative viability EC50 (midpoint between 100% and the lowest measured viability); higher = less toxic
Vero E6 [6] = assay: as above
Caco-2 [7] = assay: as above
HepG2 [8] = assay: as above
U2OS [9] = assay: cell viability relative to DMSO; higher = less toxic
Vero E6 [10] = assay: as above
Caco-2 [11] = assay: as above
HepG2 [12] = assay: as above
Calu-3 [13] = assay: drug sensitivity score (DSS) for viability; higher = more toxic; extreme values may be limits of the assay
Calu-3 [14] = assay: cell viability relative to DMSO; higher = less toxic

Row | Compound | drug sensitivity score (U2OS [1]) | drug sensitivity score (Vero E6 [2]) | drug sensitivity score (Caco-2 [3]) | drug sensitivity score (HepG2 [4]) | relative viability EC50 (U2OS [5]) | relative viability EC50 (Vero E6 [6]) | relative viability EC50 (Caco-2 [7]) | relative viability EC50 (HepG2 [8]) | cell viability (U2OS [9]; 1 nM) | cell viability (U2OS [9]; 10 nM) | cell viability (U2OS [9]; 100 nM) | cell viability (U2OS [9]; 1000 nM) | cell viability (U2OS [9]; 10000 nM) | cell viability (Vero E6 [10]; 1 nM) | cell viability (Vero E6 [10]; 10 nM) | cell viability (Vero E6 [10]; 100 nM) | cell viability (Vero E6 [10]; 1000 nM) | cell viability (Vero E6 [10]; 10000 nM) | cell viability (Caco-2 [11]; 1 nM) | cell viability (Caco-2 [11]; 10 nM) | cell viability (Caco-2 [11]; 100 nM) | cell viability (Caco-2 [11]; 1000 nM) | cell viability (Caco-2 [11]; 10000 nM) | cell viability (HepG2 [12]; 1 nM) | cell viability (HepG2 [12]; 10 nM) | cell viability (HepG2 [12]; 100 nM) | cell viability (HepG2 [12]; 1000 nM) | cell viability (HepG2 [12]; 10000 nM) | drug sensitivity score (Calu-3 [13]) | cell viability (Calu-3 [14]; 1 nM) | cell viability (Calu-3 [14]; 10 nM) | cell viability (Calu-3 [14]; 100 nM) | cell viability (Calu-3 [14]; 1000 nM) | cell viability (Calu-3 [14]; 10000 nM)
1 | COc1cccc(-c2ccc(NC(=O)C3=C(C(=O)O)CCC3)c(F)c2)c1 | 0 | 0 | 0.9 | 0 | > 10 µM | > 10 µM | > 10 µM | > 10 µM | 99% | 105% | 96.8% | 104% | 96.2% | 90.1% | 92.2% | 98% | 95.8% | 90.8% | 96.4% | 93.1% | 103% | 98.6% | 78.8% | 103% | 89.4% | 98.8% | 97.5% | 92.6% |  |  |  |  |  | 
2 | Cc1cccc(-c2[nH]c(C(C)(C)C)nc2-c2ccc3c(c2)OCO3)n1 | 2.1 | 0.9 | 8.2 | 9.1 |  | > 10 µM | 1.49 µM | 1.52 µM | 98.8% | 98.6% | 90.6% | 95.4% | 69.2% | 104% | 101% | 107% | 96.2% | 81.7% | 95.4% | 94.3% | 98.3% | 77.1% | 15% | 94.6% | 102% | 101% | 75.2% | 4.5% | 1.1 | 102% | 95.2% | 107% | 103% | 70.3%
3 | Cc1cccc(-c2n[nH]cc2-c2ccc(F)c(-c3cnn(CCO)c3)c2)n1 | 0.1 | 0 | 0 | 0 | > 10 µM | > 10 µM | > 10 µM | > 10 µM | 103% | 98.8% | 95.7% | 89.3% | 92.6% | 96.1% | 101% | 98% | 93.4% | 94.5% | 93.3% | 91.9% | 99.7% | 92.5% | 91.5% | 103% | 94.1% | 95.2% | 106% | 109% |  |  |  |  |  | 
4 | N#Cc1ccc(COC[C@H]2O[C@@H](n3c(NCc4ccc(Cl)c(Cl)c4)nc4c(N)ncnc43)[C@H](O)[C@@H]2O)cc1 | 2 | 0 | 2.3 | 7.2 |  | > 10 µM |  | 1.66 µM | 95.6% | 97.9% | 93.7% | 97.4% | 64.9% | 101% | 97.8% | 106% | 99.9% | 99.4% | 94.5% | 98.9% | 91.8% | 101% | 52.8% | 94.2% | 93.4% | 101% | 82.5% | 20.4% | 4.5 | 96.9% | 93.3% | 99.6% | 86.2% | 52.8%
5 | O=C(O)c1cc2occc2[nH]1 | 0 | 0 | 0 | 0 | > 10 µM | > 10 µM | > 10 µM | > 10 µM | 98.6% | 104% | 99.5% | 102% | 98.7% | 107% | 104% | 102% | 99.8% | 101% | 91.3% | 89% | 94.2% | 94.1% | 94.6% | 99.2% | 104% | 103% | 92.6% | 103% |  |  |  |  |  | 
6 | Cc1cc(C(=O)O)sc1C(N)C(=O)O (stereo not given) [3-MATIDA] | 0 | 0 | 0 | 0 | > 10 µM | > 10 µM | > 10 µM | > 10 µM | 103% | 110% | 96.8% | 102% | 97.5% | 92.6% | 99.2% | 95.2% | 93.5% | 98% | 96.9% | 105% | 97.3% | 99.4% | 96.9% | 96.4% | 94.8% | 83.2% | 96.3% | 91.8% |  |  |  |  |  | 
7 | Nc1cc2c3ccccc3ccc2c2ccccc12 [6-aminochrysene] | 4.4 | 0.2 |  | 3 |  |  |  |  |  |  |  |  |  |  |  |  |  |  |  |  |  |  |  |  |  |  |  |  | 0 |  |  |  |  | 
8 | CN(C)CCN(C)CCc1ccc(Cl)c(Cl)c1 [BD-1047] | 0 | 0 | 0 | 1.6 | > 10 µM | > 10 µM | > 10 µM | > 10 µM | 97.2% | 102% | 93.4% | 97.5% | 94.7% | 94.5% | 104% | 96.8% | 93.6% | 97.4% | 95.4% | 102% | 98.3% | 94.6% | 91.8% | 98.3% | 102% | 96.2% | 85.5% | 89.9% |  |  |  |  |  | 
9 | O=[N+]([O-])c1cnc(Sc2nnc(O)n2-c2ccc3c(c2)OCCO3)s1 [BI-78D3] | 5.8 | 6.3 | 7.1 | 9.8 | 3.02 µM | 2.75 µM | 2.14 µM | 1.4 µM | 98.9% | 98% | 94.5% | 97.9% | 0.1% | 101% | 95.6% | 99.3% | 94.7% | 0.4% | 99.2% | 102% | 94% | 88.3% | 7% | 103% | 102% | 95.8% | 70.3% | 1.4% |  |  |  |  |  | 
10 | CN(C)[C@@H]1C(O)=C(C(N)=O)C(=O)[C@@]2(O)C(O)=C3C(=O)c4c(O)ccc(Cl)c4[C@@](C)(O)[C@H]3C[C@@H]12 [CHLORTETRACYCLINE HYDROCHLORIDE] | 0 | 0 |  | 0 |  |  |  |  |  |  |  |  |  |  |  |  |  |  |  |  |  |  |  |  |  |  |  |  | 0 |  |  |  |  | 
11 | CCOC(=O)[C@H](Cc1ccccc1)NC(=O)c1cc(Cl)c(OCCN2CCN(C)CC2)c(Cl)c1O [JTE-607] | 0.5 | 0 | 0.7 | 8.4 | > 10 µM | > 10 µM | > 10 µM | 0.606 µM | 99.9% | 98.8% | 95.7% | 102% | 80% | 103% | 99.1% | 104% | 101% | 103% | 90.9% | 95.5% | 99.8% | 103% | 76.1% | 107% | 109% | 98.6% | 56.8% | 41.9% |  |  |  |  |  | 
12 | CCNC(=O)CC[C@H](N)C(=O)O [L-theanine] | 0 | 0 | 0 | 0 | > 10 µM | > 10 µM | > 10 µM | > 10 µM | 99.8% | 103% | 95.8% | 101% | 102% | 95.8% | 99% | 105% | 104% | 88% | 98.2% | 95% | 98.7% | 93.1% | 105% | 95.8% | 89.8% | 95.5% | 89.8% | 99.4% |  |  |  |  |  | 
13 | Nc1nc2cc(-c3ccc4ncc(C(=O)N5CCOCC5)n4c3)ccc2o1 [MLN1117] | 1 | 0.5 | 3 | 2.9 | > 10 µM | > 10 µM |  |  | 96.4% | 95.2% | 106% | 91.2% | 84.3% | 104% | 106% | 106% | 95.1% | 85.8% | 107% | 101% | 107% | 89.9% | 66.6% | 98.1% | 101% | 102% | 96.3% | 54.5% | 2.2 | 94.2% | 102% | 104% | 96.8% | 64.7%
14 | COc1ccc(C(=O)C2CCN(CC(=O)N(Cc3nc4c(c(=O)[nH]3)COCC4)CC3CC3)CC2)cc1 [NVP-TNKS656] | 0.3 | 8.7 | 0 | 0 | > 10 µM |  | > 10 µM | > 10 µM | 99% | 96.7% | 91.5% | 88.9% | 90.6% | 105% | 101% | 83.1% | 63.1% | 65.9% | 110% | 96.7% | 92.9% | 109% | 93.3% | 98.7% | 106% | 106% | 106% | 93.6% | 9.5 | 95.3% | 97.3% | 70.3% | 68.2% | 82.7%
15 | Oc1cccc(Nc2ncc(F)c(Nc3cccc(O)c3)n2)c1 [R112] | 4 | 3 | 2.7 | 4.4 | 3.01 µM | 3.03 µM |  | 2.72 µM | 97.6% | 101% | 95.6% | 98.5% | 30.2% | 103% | 102% | 99.9% | 99% | 46.6% | 103% | 107% | 99.1% | 94.7% | 62.1% | 106% | 102% | 107% | 96.1% | 30.9% | 1.4 | 92.2% | 100% | 92.6% | 92.6% | 74.8%
